Measured values: patent US4766126A, “Process for treatment of nephritis with imidazoquinazolines” (Daiichi Seiyaku Co., Ltd., priority 1986, dated 1988)
Entries after “also recorded” stand apart in the source; their conditions may differ. Where a name gives a salt, the structure may show the parent alone.

Experiments:
[1] = system: anti-erythrocyte antibody (auto-antibody) in BDF1 mice; test: Auto-antibody production in mouse induced by GVHR (anti-erythrocyte antibody titre, direct Coombs' test); format: in vivo
Method: (§1) When an animal of a first filial generation is implanted with lymphatic cells of its parent's line, a graft-versus-host reaction (hereinafter abbreviated as GVHR) takes place to thereby produce an auto-antibody and induce chronic immune-complex (IC) type nephritis.
(§2) The present invention will now be illustrated by way of experiment examples. In these examples, the drug of interest was dissolved in a 0.5 wt% aqueous solution of carboxymethyl cellulose and administered to test animals in an amount of 0.1 ml per 10 g of the body weight.
(§3) Into BDF1 mice (female; 7-week-old; Nippon Charles River) were intravenously implanted twice spleen cells (6×10^7 cells) and thymus cells (3×10^7 cells) taken from DBA/2 mice (female; 7-week-old; Nippon Charles River) of their parent's line on the 0 day and the 5th day to thereby induce GVHR. DN-9693 was orally given at a dose level of 1 mg/kg in a single dose per day for consecutive 44 days from the 6th day to the 49th day. After 2 weeks from the first implantation of cells, the protein in urine and the anti-erythrocyte antibody titre were determined at one week intervals. The protein in urine and the antibody titre were determined by the modified one step Exton method and the direct Coombs' test method, respectively, in accordance with the following procedures:
Direct Coombs' Test Method
1. Blood samples (50 μl) were obtained from the orbital veniplex of the experimental animals (mice) using a heparinized hematocrit tube.
2. The erythrocytes were washed three times by centrifugation (2,500 r.p.m. for 6 minutes) with a phosphoric acid-buffered physiological saline containing 0.3 wt% bovine serum albumin (0.3% BSA-PBS).
3. The erythrocytes were suspended in 0.3% BSA-PBS to prepare a 1 wt% mouse erythrocyte suspension.
4. The erythrocyte suspension (50 μl) was added to 50 μl of rabbit anti-mouse Ig (MBL) in a two-fold serial dilution placed in a microplate. After shaking, the system was allowed to stand at 37° C. for 1 hour and then at room temperature for 2 hours. The state of agglutination was observed.
5. The maximum dilution of the rabbit anti-mouse Ig that gave a positive agglutination was expressed as 10×2^n, and the value n was taken as an antibody titre.

[2] = system: lupus nephritis (proteinuria) in NZB/WF1 mice; test: Urinary protein in NZB/WF1 mouse (spontaneous lupus nephritis); format: in vivo
Method: as §2
Ten animals clearly showing proteinuria were chosen from 32-week-old NZB/WF1 mice (female, Jackson) and divided into two groups (5 animals per group) taking the protein level in urine as a guide.
DN-9693 was continuously administered orally one or two times per day at a dose of 1 mg/kg, and influences on changes of urinary protein level were examined.
Thus, the activity to lower protein in urine was recognized also in spontaneously occurring lupus nephritis.

[3] = system: GVHR-induced nephritis (proteinuria) in BDF1 mice; test: GVHR-induced proteinuria in mouse (urinary protein by modified one step Exton method); format: in vivo
Method: as §1, §2, §3
Modified One Step Exton Method
1. Test urine and an albumin standard preparation were placed in a microplate in 10 μl portions.
2. To each hole was added 200 μl of a reagent prepared by dissolving 15 g of sulfosalicylic acid, 20 g of anhydrous sodium sulfate, 5 mg of Bromophenol Blue, and 0.1 g of carboxymethyl cellulose in one liter of water. After stirring to mix, the system was allowed to stand at room temperature.
3. Ten minutes later, the absorbance at 690 nm was measured using the system comprising the reagent alone as a blank.
4. The protein in urine was calculated from a calibration curve.

[4] = system: nephritis of acute serum sickness; details: Clin. Exp. Immunol., Vol. 61, 388-396 (1985); cited from earlier work
[5] = 1 mg/kg p.o., in words, monohydrate

SMILES | Anti-Erythrocyte Antibody Titre (Mean ± S.E.), 3rd Week ([1]; 1 mg/kg p.o. once daily day 6-49, n=7, titre n: 10 × 2^n, 3rd week from first cell implantation, control 6.3 ± 1.0) | Anti-Erythrocyte Antibody Titre (Mean ± S.E.), 4th Week ([1]; 1 mg/kg p.o. once daily day 6-49, n=7, titre n: 10 × 2^n, 4th week from first cell implantation, control 5.4 ± 0.6) | Anti-Erythrocyte Antibody Titre (Mean ± S.E.), 5th Week ([1]; 1 mg/kg p.o. once daily day 6-49, n=7, titre n: 10 × 2^n, 5th week from first cell implantation, control 4.9 ± 1.3) | Anti-Erythrocyte Antibody Titre (Mean ± S.E.), 6th Week ([1]; 1 mg/kg p.o. once daily day 6-49, n=7, titre n: 10 × 2^n, 6th week from first cell implantation, control 2.9 ± 1.5) | Anti-Erythrocyte Antibody Titre (Mean ± S.E.), 7th Week ([1]; 1 mg/kg p.o. once daily day 6-49, n=7, titre n: 10 × 2^n, 7th week from first cell implantation, control 1.9 ± 1.2) | Influence on production of auto-antibody / immune inhibitory activity [1, 5] | Effect on urinary protein (spontaneous lupus nephritis) ([2]; 1 mg/kg p.o. one or two times per day, in words, monohydrate) | Number of survivors, 0 Week (32) ([2]; of 5 animals, 0 week, control 5) | Number of survivors, 1 Week (33) ([2]; of 5 animals, 1 week, control 5) | Number of survivors, 2 Weeks (34) ([2]; of 5 animals, 2 weeks, control 4) | Urinary Protein Index (Mean ± S.E.), 0 Week (32) ([2]; protein level after/before administration, 1 mg/kg p.o. one or two times per day, 0 week (32-week-old), control 1.0) | Urinary Protein Index (Mean ± S.E.), 1 Week (33) ([2]; protein level after/before administration, 1 mg/kg p.o. one or two times per day, 1 week (33-week-old), control 7.0 ± 5.9) | Urinary Protein Index (Mean ± S.E.), 2 Weeks (34) ([2]; protein level after/before administration, 1 mg/kg p.o. one or two times per day, 2 weeks (34-week-old), control 4.8 ± 2.9) | Effect on urinary protein (GVHR-induced nephritis) [3, 5] | Urinary Protein Score (Mean ± S.E.), 4th Week ([3]; DN-9693 1 mg/kg p.o. once daily day 6-49, n=7, 4th week from first cell implantation, control 0.2 ± 0.1, score 0 (<=1 mg/ml) to 4 (>=30 mg/ml and ascitic positive)) | Urinary Protein Score (Mean ± S.E.), 5th Week ([3]; DN-9693 1 mg/kg p.o. once daily day 6-49, n=7, 5th week from first cell implantation, control 0.8 ± 0.4, score 0 to 4) | Urinary Protein Score (Mean ± S.E.), 6th Week ([3]; DN-9693 1 mg/kg p.o. once daily day 6-49, n=7, 6th week from first cell implantation, control 1.8 ± 0.7, score 0 to 4) | Urinary Protein Score (Mean ± S.E.), 7th Week ([3]; DN-9693 1 mg/kg p.o. once daily day 6-49, n=7, 7th week from first cell implantation, control 2.3 ± 0.6, S.E. 0.4 printed on next line, significantly different from control (P < 0.05), score 0 to 4) | Protection of nephritis [4]
O=C1CN2Cc3cc(N4CCCCC4)ccc3N=C2N1 [DN-9693, 7-piperidino-1,2,3,5-tetrahydroimidazo[2,1-b]quinazolin-2-onedihydrochloride monohydrate] | 6.6 ± 0.6 | 5.6 ± 0.2 | 3.6 ± 1.1 | 3.9 ± 1.1 | 3.1 ± 1.0 | did not influence the production of an auto-antibody; also recorded: possesses no immune inhibitory activity; also recorded: does not decrease the Coombs antibody titre | the increase of urinary protein level is inhibited; also recorded: reduction of protein in the urine | 5 | 5 | 5 | 1.1 | 1.2 ± 0.2 | 1.6 ± 0.6 | exhibited an effect to decrease protein in urine; also recorded: urinary protein decreasing effect; also recorded: significantly inhibits an increase of urinary protein | 0.3 ± 0.1 | 0.1 ± 0.1 | 0.4 ± 0.4 | 0.6 | –
N=C(N)c1ccc2cc(OC(=O)c3ccc(N=C(N)N)cc3)ccc2c1 [FUT-175, dihydrochloride] | – | – | – | – | – | – | – | – | – | – | – | – | – | – | – | – | – | – | protection of nephritis
OCCN(CCO)c1nc(N2CCCCC2)c2nc(N(CCO)CCO)nc(N3CCCCC3)c2n1 [dipyridamole, 2,6-bis(diethanolamino)-4,8-dipiperidinopyrimido[5,4,-d]pyrimidine] | – | – | – | – | – | – | – | – | – | – | – | – | – | – | – | – | – | – | protection of nephritis
